Assay results reported in ChEMBL document CHEMBL1914403 (J Med Chem, 2011).

Tests used:
[1] = Drug uptake in brain; format: ADME, tissue-based
[2] = AUC in brain of rat at 10 mg/kg, po; format: ADME, organism-based; set-up: dose 10 mg/kg, route oral
[3] = system: Rattus norvegicus; assay: Volume of distribution at steady state in rat at […], po; format: ADME, organism-based; set-up: dose 2.5 mg/kg, route oral; settings: in vivo
[4] = AUC in plasma of rat at 10 mg/kg, po; format: ADME, organism-based; set-up: dose 10 mg/kg, route oral
[5] = Oral bioavailability in rat at […]; format: ADME, organism-based; settings: in vivo
[6] = system: Canis familiaris; assay: Volume of distribution at steady state in dog at 2 mg/kg, po; format: ADME, organism-based, Canis lupus familiaris; set-up: dose 2 mg/kg, route oral; settings: in vivo
[7] = Oral bioavailability in dog at 2 mg/kg; format: ADME, organism-based, Canis lupus familiaris; settings: in vivo
[8] = Oral bioavailability in dog at […]; format: ADME, organism-based, Canis lupus familiaris; settings: in vivo
[9] = system: MDCK; assay: Apparent permeability across basolateral to apical side of dog MDCK cells expressing human MDR1; format: ADME, cell-based, Canis lupus familiaris
[10] = system: MDCK; assay: Apparent permeability across apical to basolateral side of dog MDCK cells expressing human MDR1; format: ADME, cell-based, Canis lupus familiaris
[11] = system: Canis familiaris; assay: Volume of distribution at steady state in dog at […], po; format: ADME, organism-based, Canis lupus familiaris; set-up: dose 2.5 mg/kg, route oral; settings: in vivo
[12] = Oral bioavailability in dog at 0.5 mg/kg; format: ADME, organism-based, Canis lupus familiaris; settings: in vivo
[13] = Oral bioavailability in rat at 0.1 mg/kg; format: ADME, organism-based; settings: in vivo
[14] = system: Canis familiaris; assay: Volume of distribution at steady state in dog at 0.5 mg/kg, po; format: ADME, organism-based, Canis lupus familiaris; set-up: dose 0.5 mg/kg, route oral; settings: in vivo
[15] = system: Rattus norvegicus; assay: Volume of distribution at steady state in rat at 0.1 mg/kg, po; format: ADME, organism-based; set-up: dose 0.1 mg/kg, route oral; settings: in vivo
[16] = system: Rattus norvegicus; assay: Volume of distribution at steady state in rat at 2 mg/kg, po; format: ADME, organism-based; set-up: dose 2 mg/kg, route oral; settings: in vivo
[17] = Oral bioavailability in rat at 2 mg/kg; format: ADME, organism-based; settings: in vivo

Row | Compound | Drug uptake [1] [%] | also measured
1 | Cc1ccncc1-c1nc(C)c2c(C)nc3ccccc3n12 | > 90 | –
2 | COc1cc(F)cc2c1nc(C)c1c(C)nc(-c3c(C)nn(C)c3C)n12 | > 90 | –
3 | Cc1cnccc1-c1nc(C)c2c(C)nc3ccc(OC(F)(F)F)cc3n12 | > 90 | –
4 | COc1cc(F)c2nc(C)c3c(C)nc(-c4cccnc4C)n3c2c1 | > 90 | –
5 | Cc1ccccc1-c1nc(C)c2c(C)nc3c(OCC4CC4)cc(F)cc3n12 | > 90 | –
6 | COc1ccc2nc(C)c3c(C(F)(F)F)nc(-c4ccccc4Cl)n3c2n1 | > 90 | –
7 | COc1ccc2nc(C)c3c(C)nc(-c4ccncc4C)n3c2n1 | > 90 | –
8 | COc1ccc2nc(C)c3c(C(F)(F)F)nc(-c4ccccc4C)n3c2n1 | > 90 | –
9 | Cc1ccccc1-c1nc(C)c2c(C)nc3ccc(F)cc3n12 | > 90 | –
10 | COc1ccc2nc(C)c3c(C)nc(-c4cncnc4)n3c2n1 | > 90 | –
11 | COc1ccc2nc(C)c3c(C)nc(-c4cn[nH]c4)n3c2n1 | > 90 | –
12 | Cc1cnccc1-c1nc(C)c2c(C)nc3ccc(F)cc3n12 | > 90 | –
13 | COc1ccc2nc(C(F)F)c3c(C)nc(-c4ccccc4Cl)n3c2n1 | > 90 | –
14 | COc1ccc2nc(C)c3c(C)nc(-c4cccnc4)n3c2n1 | > 90 | –
15 | COc1ccc2nc(C)c3c(C)nc(-c4ccccc4C(N)=O)n3c2n1 | > 90 | –
16 | COc1ccc(Cl)c(-c2nc(C(F)(F)F)c3c(C)nc4ccc(OC)nc4n23)c1 | > 90 | –
17 | COc1cc(OCc2ccccc2)cc2c1nc(C)c1c(C)nc(-c3cccnc3C)n12 | > 90 | –
18 | CCOc1cc(F)cc2c1nc(C)c1c(C)nc(-c3ccccc3C)n12 | > 90 | –
19 | COc1ccc2nc(C)c3c(C(F)(F)F)nc(-c4ccc(F)cc4Cl)n3c2n1 | > 90 | –
20 | COc1cc(F)cc2c1nc(C)c1c(C)nc(-c3cccnc3C)n12 | > 90 | –
21 | COc1ccc2nc(C)c3c(C)nc(-c4cccn4C)n3c2n1 | > 90 | –
22 | COc1ccc2nc(C)c3c(C)nc(-c4ccc(C)nc4)n3c2n1 | > 90 | –
23 | Cc1cnccc1-c1nc(C)c2c(C)nc3ccc(Cl)cc3n12 | > 90 | –
24 | COc1ccc2nc(C)c3c(C)nc(-c4ccc(F)cc4Cl)n3c2n1 | > 90 | –
25 | COc1cc(N2CCOCC2)cc2c1nc(C)c1c(C)nc(-c3cccnc3C)n12 | > 90 | –
26 | Cc1ncccc1-c1nc(C)c2c(C)nc3ccc(C(F)(F)F)cc3n12 | > 90 | –

Row | Compound | Drug uptake [1] [%] | also measured
27 | Cc1cnccc1-c1nc(C)c2c(C)nc3c(F)cc(OC(F)F)cc3n12 | > 90 | –
28 | Cc1cnccc1-c1nc(C)c2c(C)nc3ccc(C(F)(F)F)cc3n12 | > 90 | –
29 | COc1cc(OC)c2nc(C)c3c(C)nc(-c4cnccc4C)n3c2c1 | > 90 | AUC [2]: 3280 ng·h/mL; Vdss [3]: 1.3 L/kg; AUC [4]: 8850 ng·h/mL; bioavailability [5]: 25%; Vdss [6]: 1.6 L/kg; bioavailability [7]: 100%
30 | COc1ccc2nc(C)c3c(C)nc(-c4cnccc4C)n3c2c1 | > 90 | –
31 | COc1cc(N2CCOCC2)cc2c1nc(C)c1c(C)nc(-c3ccncc3C)n12 | > 90 | –
32 | Cc1ccncc1-c1nc(C)c2c(C)nc3ccc(F)cc3n12 | > 90 | –
33 | COc1ccc2nc(C)c3c(C)nc(-c4cc(Cl)ccc4Cl)n3c2n1 | > 90 | –
34 | COc1ccc2nc(C)c3c(C)nc(-c4c(C)noc4C)n3c2n1 | > 90 | –
35 | Cc1ccccc1-c1nc(C)c2c(C)nc3c(O)cc(F)cc3n12 | > 90 | –
36 | COc1cc(F)c2nc(C)c3c(C)nc(-c4ccncc4C)n3c2c1 | > 90 | –
37 | COc1cc(F)c2nc(C)c3c(C)nc(-c4cnccc4C)n3c2c1 | > 90 | –
38 | COc1ccc2nc(C)c3c(C)nc(-c4cccnc4C)n3c2n1 | > 90 | –
39 | COc1ccc2nc(C#N)c3c(C)nc(-c4ccccc4Cl)n3c2n1 | > 90 | –
40 | COc1ccc2nc(C)c3c(C)nc(-c4ccccc4OC(F)(F)F)n3c2n1 | > 90 | –
41 | Cc1ccccc1-c1nc(C)c2c(C)nc3c(OC(F)F)cc(F)cc3n12 | > 90 | –
42 | Cc1ccccc1-c1nc(C)c2c(C)nc3c(OCC(F)(F)F)cc(F)cc3n12 | > 90 | –
43 | COc1ccc2nc(C)c3c(C)nc(-c4cnccc4Cl)n3c2n1 | > 90 | –
44 | COc1ccc2nc(C)c3c(C)nc(-c4ccccc4OC)n3c2n1 | > 90 | –
45 | COc1ccc2nc(C)c3c(C)nc(-c4ccccc4Cl)n3c2n1 | > 90 | –
46 | COc1ccc2nc(C(F)(F)F)c3c(C)nc(-c4ccccc4Cl)n3c2n1 | > 90 | –
47 | COc1ccc2nc(C)c3c(C(F)(F)F)nc(-c4cc(Cl)ccc4Cl)n3c2n1 | > 90 | –
48 | Cc1cnccc1-c1nc(C)c2c(C)nc3c(Cl)cc(C(F)(F)F)cc3n12 | > 90 | –
49 | Cc1cnccc1-c1nc(C)c2c(C)nc3c(F)cc(F)cc3n12 | > 90 | –
50 | COc1cc(C(F)(F)F)cc2c1nc(C)c1c(C)nc(-c3ccncc3C)n12 | > 90 | –
51 | COc1cc(F)c2nc(C)c3c(C)nc(-c4c(C)nn(C)c4C)n3c2c1 | > 90 | –
52 | COc1cc(F)cc2c1nc(C)c1c(C)nc(-c3ccccc3C)n12 | > 90 | –

Row | Compound | Drug uptake [1] [%] | also measured
53 | COc1cc(F)cc2c1nc(C)c1c(C)nc(-c3sc(C)nc3C)n12 | > 90 | –
54 | Cc1cnccc1-c1nc(C)c2c(C)nc3c(F)cc(OCC(F)(F)F)cc3n12 | > 90 | –
55 | Cc1ccncc1-c1nc(C)c2c(C)nc3ccc(C(F)(F)F)cc3n12 | > 90 | –
56 | COc1cc(F)cc2c1nc(C)c1c(C)nc(-c3ccncc3C)n12 | > 90 | bioavailability [8]: 73%; AUC [2]: 2370 ng·h/mL; Vdss [3]: 0.9 L/kg; AUC [4]: 3640 ng·h/mL; Papp [9]: permeable; bioavailability [5]: 27%; Papp [10]: permeable; Vdss [11]: 6 L/kg
57 | COc1ccc2nc(C)c3c(C)nc(-c4sc(C)nc4C)n3c2n1 | > 90 | –
58 | COc1ccc2nc(C)c3c(C)nc(-c4ccncc4Cl)n3c2n1 | > 90 | –
59 | COc1cc(F)cc2c1nc(C)c1c(C)nc(-c3cnccc3C)n12 | > 90 | –
60 | Cc1ccncc1-c1nc(C)c2c(C)nc3c(F)cc(F)cc3n12 | > 90 | –
61 | COc1cc(Cl)c2nc(C)c3c(C)nc(-c4ccncc4C)n3c2c1 | > 90 | –
62 | COc1ccc2nc(C)c3c(C)nc(-c4ccccc4C)n3c2n1 | > 90 | –
63 | COc1cc(OC(F)F)cc2c1nc(C)c1c(C)nc(-c3cccnc3C)n12 | > 90 | bioavailability [12]: 84%; bioavailability [13]: 83%; AUC [2]: 4400 ng·h/mL; AUC [4]: 12700 ng·h/mL; Vdss [14]: 1.1 L/kg; Vdss [15]: 0.6 L/kg
64 | Cc1ccncc1-c1nc(C)c2c(C)nc3ccc(Cl)cc3n12 | > 90 | –
65 | COc1ccc2nc(C)c3c(C)nc(-c4cnccc4OC)n3c2n1 | > 90 | –
66 | COc1ccc2nc(C)c3c(C)nc(-c4c(C)nn(C)c4C)n3c2n1 | > 90 | AUC [2]: 2940 ng·h/mL; AUC [4]: 4130 ng·h/mL; Vdss [16]: 0.7 L/kg; bioavailability [17]: 67%
67 | COc1ccc2nc(C)c3c(C)nc(-c4sccc4C)n3c2n1 | > 90 | –
68 | COc1ccc2nc(C)c3c(C)nc(-c4cnccc4C)n3c2n1 | > 90 | AUC [2]: 866 ng·h/mL; Vdss [3]: 1 L/kg; AUC [4]: 747 ng·h/mL; bioavailability [5]: 25%
69 | COc1ccc2nc(C)c3c(C)nc(-c4c(C)n[nH]c4C)n3c2n1 | > 90 | –
70 | COc1ccc2nc(C)c3c(C)nc(-c4ccccc4C(F)(F)F)n3c2n1 | > 90 | –
71 | COc1cc(OC)c2nc(C)c3c(C)nc(-c4cccnc4C)n3c2c1 | > 90 | –
72 | COc1ccc2nc(C)c3c(C)nc(-c4cccnc4OC)n3c2n1 | > 90 | –
73 | Cc1cnccc1-c1nc(C)c2c(C)nc3c(F)cc(OCC4CC4)cc3n12 | > 90 | –
74 | COc1cc(OC)c2nc(C)c3c(C)nc(-c4ccncc4C)n3c2c1 | > 90 | –
75 | Cc1ccncc1-c1nc(C)c2c(C)nc3ccc(OC(F)(F)F)cc3n12 | > 90 | –
76 | COc1ccc2nc(C)c3c(C(F)(F)F)nc(-c4cc(F)ccc4Cl)n3c2n1 | > 90 | –
